Data as given in ChEMBL document CHEMBL3603790, “2- and 3-Fluoro-3-deazaneplanocins, 2-fluoro-3-deazaaristeromycins, and 3-methyl-3-deazaneplanocin: Synthesis and antiviral properties” (Bioorg Med Chem, 2015).
The source made the active and inactive calls. The calls are words filed in the database; no cut-off is given here.

How the values were obtained:
[1] = system: Respiratory syncytial virus; assay: Antiviral activity against Respiratory syncytial virus infected in monkey MA104 cells after 3 days by neutral red dye-based plaque reduction assay; type: functional, organism-based
Enterovirus C = assay: Antiviral activity against Poliovirus infected in monkey LLC-MK2 cells after 3 days by neutral red dye-based plaque reduction assay; type: functional, organism-based
Yellow fever virus = assay: Antiviral activity against Yellow fever virus infected in African green monkey Vero cells after 3 days by neutral red dye-based plaque reduction assay; type: functional, organism-based; settings: 72 h
Rift Valley fever virus = assay: Antiviral activity against Rift Valley fever virus infected in African green monkey Vero 76 cells after 3 days by neutral red dye-based plaque reduction assay; type: functional, organism-based
[2] = system: Respiratory syncytial virus; assay: Antiviral activity against Respiratory syncytial virus infected in human HeLa cells after 3 days by neutral red dye-based plaque reduction assay; type: functional, organism-based
HEL = assay: Cytotoxicity against HEL cells; type: cell-based; settings: human
Measles morbillivirus = assay: Antiviral activity against Measles virus infected in African green monkey CV1 cells after 3 days by neutral red dye-based plaque reduction assay; type: functional, organism-based; settings: CV-1, 72 h
[3] = (§1) Cytotoxicity against African green monkey Vero cells; type: cell-based; settings: chlorocebus sabaeus, Vero cells
[4] = Selectivity index, ratio of CC50 for African green monkey Vero cells to IC50 for Yellow fever virus; type: functional
Cowpox virus = assay: Antiviral activity against Cowpox virus infected in HFF after 3 days by neutral red dye-based plaque reduction assay; type: functional, organism-based
[5] = Cytotoxicity against human Ava5 cells; type: cell-based
Human alphaherpesvirus 2 = assay: Antiviral activity against Human herpesvirus 2 infected in HEL cells after 3 days by neutral red dye-based plaque reduction assay; type: functional, organism-based
SARS-CoV = assay: Antiviral activity against SARS coronavirus infected in African green monkey Vero E6 cells after 3 days by neutral red dye-based plaque reduction assay; type: functional, organism-based; settings: Severe acute respiratory syndrome-related coronavirus
HeLa = assay: Cytotoxicity against human HeLa cells; type: cell-based
Human alphaherpesvirus 1 = assay: Antiviral activity against Human herpesvirus 1 infected in HEL cells after 3 days by neutral red dye-based plaque reduction assay; type: functional, organism-based
West Nile virus = assay: Antiviral activity against WNV infected in African green monkey Vero 76 cells after 3 days by neutral red dye-based plaque reduction assay; type: functional, organism-based
Human papillomavirus = assay: Antiviral activity against Human papillomavirus infected in HEK293 cells after 3 days by neutral red dye-based plaque reduction assay; type: functional, organism-based
[6] = Cytotoxicity against African green monkey Vero E6 cells; type: cell-based; settings: chlorocebus sabaeus
Tacaribe virus = assay: Antiviral activity against Tacaribe virus infected in African green monkey Vero 76 cells after 3 days by neutral red dye-based plaque reduction assay; type: functional, organism-based; settings: Mammarenavirus tacaribeense
Dengue virus = assay: Antiviral activity against Dengue virus infected in African green monkey Vero cells after 3 days by neutral red dye-based plaque reduction assay; type: functional, organism-based
Hepatitis C virus = assay: Antiviral activity against Hepatitis C virus infected in human Ava5 cells after 3 days by neutral red dye-based plaque reduction assay; type: functional, organism-based; settings: Hepacivirus hominis
Influenza A virus = assay: Antiviral activity against Influenza A virus H1N1 infected in MDCK cells after 3 days by neutral red dye-based plaque reduction assay; type: functional, organism-based
LLC-MK2 = assay: Cytotoxicity against monkey LLC-MK2 cells; type: cell-based, Macaca mulatta; settings: rhesus monkey
[7] = Cytotoxicity against African green monkey Vero 76 cells; type: cell-based; settings: chlorocebus sabaeus, vero 76
Vaccinia virus = assay: Antiviral activity against Vaccinia virus infected in HEL cells after 3 days by neutral red dye-based plaque reduction assay; type: functional, organism-based; settings: Orthopoxvirus vaccinia
Cytomegalovirus = assay: Antiviral activity against Cytomegalovirus infected in HEL cells after 3 days by neutral red dye-based plaque reduction assay; type: functional, organism-based
MDCK = assay: Cytotoxicity against MDCK cells; type: cell-based, Canis lupus familiaris; settings: dog, mdck
HEK293 = assay: Cytotoxicity against HEK293 cells; type: cell-based; settings: human
Pichinde virus = assay: Antiviral activity against Pichinde virus infected in African green monkey Vero cells after 3 days by neutral red dye-based plaque reduction assay; type: functional, organism-based
[8] = Cytotoxicity against monkey MA104 cells; type: cell-based, Macaca mulatta; settings: rhesus monkey
Chikungunya virus = assay: Antiviral activity against Chikungunya virus infected in African green monkey Vero 76 cells after 3 days by neutral red dye-based plaque reduction assay; type: functional, cell-based
[9] = Selectivity index, ratio of CC50 for African green monkey CV1 cells to IC50 for Measles virus; type: functional, CV-1
[10] = Cytotoxicity against African green monkey CV1 cells; type: cell-based, CV-1; settings: chlorocebus aethiops
[11] = Inhibition of rabbit erythrocytic AdoHcy hydrolase using AdoHcy as substrate assessed as formation of L-homocysteine preincubated for 5 mins followed by substrate addition measured after 1 hr by thiol quantitation reagent-based assay; set-up: species or system Oryctolagus cuniculus
[12] = system: Venezuelan equine encephalitis virus; assay: Antiviral activity against Venezuelan equine encephalitis virus infected in African green monkey Vero cells after 3 days by neutral red dye-based plaque reduction assay; type: functional, organism-based
Enterovirus A71 = assay: Antiviral activity against Enterovirus 71 infected in monkey LLC-MK2 cells after 3 days by neutral red dye-based plaque reduction assay; type: functional, organism-based
Vero = assay: as §1; type: cell-based; settings: chlorocebus sabaeus, vero
[13] = Selectivity index, ratio of CC50 for HFF to IC50 for HCMV; type: functional
[14] = Cytotoxicity against human […] cells; type: cell-based
Human betaherpesvirus 5 = assay: Antiviral activity against HCMV infected in HFF after 3 days by neutral red dye-based plaque reduction assay; type: functional, organism-based; settings: Human betaherpesvirus 5, 72 h
[15] = Selectivity index, ratio of CC50 for human HepG2(2.2.1) cells to IC50 for HBV; type: functional
Hepatitis B virus = assay: Antiviral activity against HBV infected in human HepG22.2.15 cells after 3 days by neutral red dye-based plaque reduction assay; type: functional, organism-based; settings: HepG2 2.2.15, 72 h
[16] = Cytotoxicity against HFF; type: cell-based; settings: human, HFF cells

Nc1nc(F)cc2c1ncn2[C@@H]1C[C@H](O)[C@@H](O)[C@H]1O
Activity [1]: inactive
Activity (Enterovirus C): inactive
IC50 (Yellow fever virus): 15 µM
Activity (Rift Valley fever virus): inactive
Activity [2]: inactive
Activity (HEL): Non-toxic
IC50 (Measles morbillivirus): 30.2 µM
CC50 [3]: > 100 µM
Ratio CC50/IC50 [4]: >6.7
Activity (Cowpox virus): inactive
Activity [5]: Non-toxic
Activity (Human alphaherpesvirus 2): inactive
Activity (SARS-CoV): inactive
Activity (HeLa): Non-toxic
Activity (Human alphaherpesvirus 1): inactive
Activity (West Nile virus): inactive
Activity (Human papillomavirus): inactive
Activity [6]: Non-toxic
Activity (Tacaribe virus): inactive
Activity (Dengue virus): inactive
Activity (Hepatitis C virus): inactive
Activity (Influenza A virus): inactive
Activity (LLC-MK2): Non-toxic
Activity [7]: Non-toxic
Activity (Vaccinia virus): inactive
Activity (Cytomegalovirus): inactive
Activity (MDCK): Non-toxic
Activity (HEK293): Non-toxic
Activity (Pichinde virus): inactive
Activity [8]: Non-toxic
Activity (Chikungunya virus): inactive
Ratio CC50/IC50 [9]: >3
CC50 [10]: > 100 µM
IC50 [11]: 1 µM
Activity [12]: inactive
Activity (Enterovirus A71): inactive

Nc1nc(F)cc2c1ncn2[C@@H]1C[C@H](CCO)[C@@H](O)[C@H]1O
Activity [1]: inactive
Activity (Rift Valley fever virus): inactive
Activity [2]: inactive
Activity (HEL): Non-toxic
IC50 (Measles morbillivirus): 162 µM
Activity (Vero): Non-toxic
Activity [5]: Non-toxic
Activity (HeLa): Non-toxic
Activity (West Nile virus): inactive
Activity (Tacaribe virus): inactive
Activity (Dengue virus): inactive
Activity (Hepatitis C virus): inactive
Activity [7]: Non-toxic
Activity (Vaccinia virus): inactive
Activity [8]: Non-toxic
Ratio CC50/IC50 [9]: >2.1
CC50 [10]: > 338 µM
IC50 [11]: 3.75 µM
Activity [12]: inactive

Nc1nc(F)cc2c1ncn2[C@@H]1C=C(CCO)[C@@H](O)[C@H]1O
Activity [1]: inactive
Activity (Enterovirus C): inactive
IC50 (Yellow fever virus): 29 µM
Activity (Rift Valley fever virus): inactive
Activity [2]: inactive
Activity (HEL): Non-toxic
IC50 (Measles morbillivirus): 89.8 µM
Ratio CC50/IC50 [13]: > 300
CC50 [3]: > 100 µM
Ratio CC50/IC50 [4]: >3.4
Activity [5]: Non-toxic
Activity (Human alphaherpesvirus 2): inactive
Activity (SARS-CoV): inactive
Activity (HeLa): Non-toxic
Activity (Human alphaherpesvirus 1): inactive
Activity (West Nile virus): inactive
Activity [6]: Non-toxic
Activity (Dengue virus): inactive
Activity (Hepatitis C virus): inactive
Activity (Influenza A virus): inactive
Activity (LLC-MK2): Non-toxic
Activity [7]: Non-toxic
Activity (Vaccinia virus): inactive
CC50 [14]: 7.5 µM
Activity (MDCK): Non-toxic
IC50 (Human betaherpesvirus 5): < 0.1 µM
Activity [8]: Non-toxic
Ratio CC50/IC50 [9]: >1
CC50 [10]: > 100 µM
IC50 [11]: > 10 µM
Ratio CC50/IC50 [15]: 8
IC50 (Hepatitis B virus): 0.99 µM
Activity [12]: inactive
CC50 [16]: > 300 µM
